Here are results for six compounds from patent US6749832B2, “Labelled ascorbic acid derivatives” (Amersham PLC, priority 1999, dated 2004).

For data set [1], the system named is mineralising nodules of primary rat osteoblasts. Description: Autoradiography of mineralised bone nodules produced by cultured rat osteoblasts. The class given is cell-based. To be noted: 21-day culture period. The protocol: Foetus heads were collected and sprayed with 70% isopropanol. Calvaria were then removed by cutting the skin from the top of the head, making one incision through the calvaria from the external auditory meatus across behind the parietal bones and a second forward to above the eye sockets. When all the calvaria were isolated, they were rinsed with PBS (Ca^2+ and Mg^2+-free), then incubated in trypsin at 37° C. for 10 minutes. Calvaria were transferred into 0.2% collagenase (type II) in HBSS for 30 minutes at 37° C. This collagenase digestion was repeated for 60 minutes to release the osteoblast populations. Supernatant was removed and spun down to obtain a cell pellet. The pellet was resuspended in media, viable cells counted and plated out into a T75 flask. Once confluent, cells were subcultured into 6-multiwell plates at 2×10^4-2×10^5 cells/well in 3 ml medium containing 1 mM β-glycerophosphate. In addition ascorbic acid (50 μg/ml), ^14C-ascorbic acid (19.6 μCi/ml) or ^14C-compound 7 (2.8 μCi/ml) were incubated with osteoblasts over the culture period. Cells were fed two to three times per week and cultured for up to 21 days. Nodules became macroscopically visible at around 7-10 days and commenced mineralisation (assessed by Alizarin red staining) soon after. […]

Data set [2] relates to MC3T3-E1 murine pre-osteoblast cells. Description: Standard cell uptake assay: competition for uptake of ^14C-ascorbic acid. The following applies: for pIC50: Mus musculus, competition with ^14C-ascorbic acid uptake into MC3T3-E1 cells; for Competition: competition with 125 μM ^14C-ascorbic acid for uptake into MC3T3-E1 cells, 60 min. The class given is cell-based. The protocol:
Unlabelled ascorbic acid derivatives of the present invention have been tested for their ability to compete for uptake of ^14C-ascorbic acid into MC3T3-E1 cells, a murine pre-osteoblast cell line. MC3T3-E1 cells are grown in tissue culture plates and the appropriate assay solution containing a standard concentration of ^14C-ascorbic acid plus a competing concentration of ascorbic acid derivative added to each well. The amount of ^14C-ascorbic acid taken up by the cells in 60 min is then measured.
Standard Cell Uptake Assay
Transport buffer: 134 mM NaCl, 5.4 mM KCl, 1.8 mM CaCl2, 0.8 mM MgSO4, 20 mM HEPES, 10 mM glucose, pH7.3, stored at room temperature
Assay buffer: Transport buffer+40 μM […] ^14C-ascorbic acid (Amersham Pharmacia Biotech)
Stock solution: 50 μCi in 50 μl Analar water, stored at −20° C.
Assay solution: 200 nCi ^14C-ascorbic acid in 200 μl assay buffer/well (125 μM)
Stop buffer: 200 μM phloretin in assay buffer, chilled to 4° C.
Lysis solution: 0.1% SDS in Analar water
MC3T3-E1 murine pre-osteoblast cells were seeded in a 24-well plate at 2×10^5 cells/well in 1 ml minimal essential media plus 10% FCS, penicillin and streptomycin. Cells were grown overnight at 37° C., 5% CO2. Assay buffer and solutions were prepared on the morning of the assay. Cells were examined under the microscope for confluence and viability. Growth media was removed using a Liquipippette and each well washed with 2×200 μl assay buffer. The appropriate assay solution was added to each well and the plate incubated at 37° C. for the required time. To stop the reaction, 0.5 ml chilled stop buffer was added to each well. Each well was then washed with 0.5 ml stop buffer. Cells were lysed in 0.1% SDS solution for approximately 10 min and solutions transferred to scintillation vials. Each well was then washed with assay buffer and this wash solution also transferred to the appropriate scintillation vial. Scintillation fluid (5 ml) was added to each vial, the vials vortexed and counted on a Rackbeta counter.

The conditions of data set [3]: reported in the literature; cited from earlier work.

pIC50: −log10 of the molar value.

As to `O=C1O[C@H]([C@@H](O)CO)C(O)=C1O` [^14C-ascorbic acid], in data set [1], the “association with / accumulation in mineralised bone nodules (autoradiography)” value is reported as “associated with the mineralising nodules”.

Broadly, the pIC50 is the IC50 on a negative log10 scale, so that one unit is a factor of ten. High values mean a small IC50, low ones a large IC50. Regarding `O=C1O[C@H]([C@@H](O)COC(=O)c2ccc(I)cc2)C(O)=C1O` [Compound 12, 6-O-(4-iodobenzoyl)-L-ascorbic acid], in data set [2], the negative logarithm of the IC50 (pIC50) was 3.42 and the Competition entry is recorded as “Yes”.

As to `O=C(/C=C/I)OCC(O)C1OC(=O)C(O)=C1O` (stereo not drawn) [Compound 15], in data set [2], the pIC50 is 3.10 and the Competition entry is on record as “Yes”.

As for `O=C1OC(C(O)CSc2ccccc2)C(O)=C1O` (stereo not drawn) [Compound 16], in data set [2], the “competition for uptake of ^14C-ascorbic acid into MC3T3-E1 cells (text)” value is “competed”, the pIC50 is 2.73 and the Competition entry is “Yes”. For the same compound, the “competition for uptake of ^14C-ascorbic acid into MC3T3-E1 cells (text)” value in data set [2] (listed as compound 16) is given as “very weak”.

For `O=C1O[C@H]([C@@H](O)C[18F])C(O)=C1O` [^18F-DFA, 6-deoxy-6-[^18F]fluoro-L-ascorbic acid], the bone uptake entry in data set [3] was “very low”.

As for `O=C1O[C@H]([C@@H](O)CO)C(O)=C1O` [Ascorbic acid, ascorbic acid], in data set [2], the pIC50 is 3.59 and the Competition result is given as “Yes”.
